From patent US5633263A, “Linear somatostatin analogs” (The Administrators of the Tulane Educational Fund, priority 1994, dated 1997) come the findings set out here.

Structures are written as SMILES. Where a SMILES comes first, the peptide text is derived from it. [ ]: non-standard residue; d: D form.

Assay [1] deals with [125I-Tyr11]SRIF-14 binding to crude membrane preparations from human small cell lung carcinoma (NCI-H69) cells. Briefly: Inhibition of [125I]SRIF-14 binding, SCLC membranes. To be noted: [125I]SRIF-14 approximately 0.05 nM, read-out: IC50 (nM) SCLC, inhibition of I125 SRIF-14 binding. On the procedure: (§1) Crude membrane preparations were obtained from rat pancreas, cerebral cortex, or human small cell lung carcinoma (NCI-H69) cells by homogenizing (Polytron, setting 6, 15 sec) the tissues or cells in ice-cold 50 mM Tris-HCl and centrifuging twice at 39,000× g (10 min), with an intermediate resuspension in fresh buffer. The final pellets were resuspended in 10 mM Tris-HCl for assay. Aliquots of the membrane preparation were incubated for 25 min at 30° C. with labeled somatotropin-release-inhibiting factor, [^125 I-Tyr^11 ] SRIF-14 (2000 Ci/mmol, Amersham Corp.), in 50 mM HEPES (pH 7.4) containing bovine serum albumin (10 mg/ml; fraction V, Sigma Chem.), MgCl2 (5mM), Trasylol (200 KIU/ml), bacitracin (0.02 mg/ml), and phenylmethylsulphonyl fluoride (0.02 mg/ml). The final assay volume was 0.3 ml. The incubations were terminated by rapid filtration through Whatman GF/C filters (pre-soaked in 0.3% polyethylenimine) under reduced pressure. Each tube and filter were then washed three times with 5 ml aliquots of ice-cold buffer. Specific binding was defined as the total [^125 I]SRIF-14 bound minus that bound in the presence of 200 nM unlabelled SRIF-14.
(§2) Table 1 gives results of inhibition of [^125 I]SRIF-14 binding by linear peptides of the invention. The concentration of [^125 I]SRIF-14 was approximately 0.05 nM. […]

The target in assay [2] is [125I-Tyr11]SRIF-14 binding to crude membrane preparations from rat cerebral cortex. In words: Inhibition of [125I]SRIF-14 binding, brain membranes. Particulars: [125I]SRIF-14 approximately 0.05 nM, read-out: IC50 (nM) Brain, inhibition of I125 SRIF-14 binding. As for the experimental part: as §1, §2
The target in assay [3] is [125I-Tyr11]SRIF-14 binding to crude membrane preparations from rat pancreas. In words: Inhibition of [125I]SRIF-14 binding, pancreas membranes. Particulars: for IC50: rat pancreas membranes, [125I]SRIF-14 approximately 0.05 nM, read-out: IC50 (nM) Pancreas, inhibition of I125 SRIF-14 binding. On the procedure:
as §1
Table 1 gives results of inhibition of [^125 I]SRIF-14 binding by linear peptides of the invention. The concentration of [^125 I]SRIF-14 was approximately 0.05 nM. (Values in parenthesis indicate the number of independent determinations.) The IC50 (concentration of analog resulting is 50% competitive inhibition) in nM values are indicated for pancreas, small cell lung carcinoma (SCLC), and brain. […] Peptide DC-23-85, which is not within the invention, inhibits the binding of I^125 SRIF-14 only poorly.

Take `C[C@@H](O)[C@H](NC(=O)[C@H](Cc1ccccc1)NC(=O)[C@@H](NC(=O)[C@H](CCCCN)NC(=O)[C@@H](Cc1c[nH]c2ccccc12)NC(=O)[C@H](Cc1ccccc1)NC(=O)[C@H](Cc1ccccc1)NC(=O)[C@H](N)Cc1ccccc1)[C@@H](C)O)C(N)=O` [BIM-23052/DC-23-99, D-Phe-Phe-Phe-D-Trp-Lys-Thr-Phe-Thr-NH2] (H-[dF]FF[dW]KTFT-NH2): the IC50 in assay [1] came out at 1.2 nM; in assay [2], 7.3 nM; in assay [3], 9.4 nM. Moreover, the “inhibiting the binding of I125 SRIF-14 (in words)” value in assay [3] (summary in words of Table 1 (pancreas, SCLC, brain)) was “particularly effective”.

For `C[C@H](N)C(=O)NCC(=O)N[C@H]1CSSC[C@@H](C(=O)O)NC(=O)[C@H](CO)NC(=O)[C@H]([C@@H](C)O)NC(=O)[C@H](Cc2ccccc2)NC(=O)[C@H]([C@@H](C)O)NC(=O)[C@H](CCCCN)NC(=O)[C@H](Cc2c[nH]c3ccccc23)NC(=O)[C@H](Cc2ccccc2)NC(=O)[C@H](Cc2ccccc2)NC(=O)[C@H](CC(N)=O)NC(=O)[C@H](CCCCN)NC1=O` [Somatostatin, Ala-Gly-Cys-Lys-Asn-Phe-Phe-Trp-Lys-Thr-Phe-Ser-OH], the IC50 in assay [1] came out at 4.2 nM; in assay [2] it was 0.53 nM; in assay [3], 0.53 nM.
